± gives the standard deviation of the averaged measurements.
Tests used:
SOTRASTAURIN/AEB071 = compound: CN1CCN(c2nc(C3=C(c4c[nH]c5ccccc45)C(=O)NC3=O)c3ccccc3n2)CC1 [SOTRASTAURIN/AEB071]; test: surviving fraction relative to DMSO-only wells; higher = less growth inhibition; details: exposure time: 5 days
How it was run: (§1)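 Tumour cell lines were grown to log phase and seeded at 250–500 cells per well in 384-well plates. They were exposed continuously to inhibitors at 0.5, 1, 5, 10, 50, 100, 500 and 1000 nM for five days, beginning 24 hours after seeding. Surviving fraction is CellTiter-Glo luminescence normalised to the median of DMSO-only wells.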

CRIZOTINIB = compound: C[C@@H](Oc1cc(-c2cnn(C3CCNCC3)c2)cnc1N)c1c(Cl)ccc(F)c1Cl [CRIZOTINIB]; test: as above; details: exposure time: 5 days
How it was run: as §1

Test System | surviving fraction (SOTRASTAURIN/AEB071; 0.5 nM) | surviving fraction (SOTRASTAURIN/AEB071; 1 nM) | surviving fraction (SOTRASTAURIN/AEB071; 5 nM) | surviving fraction (SOTRASTAURIN/AEB071; 10 nM) | surviving fraction (SOTRASTAURIN/AEB071; 50 nM) | surviving fraction (SOTRASTAURIN/AEB071; 100 nM) | surviving fraction (SOTRASTAURIN/AEB071; 500 nM) | surviving fraction (SOTRASTAURIN/AEB071; 1000 nM) | surviving fraction (CRIZOTINIB; 0.5 nM) | surviving fraction (CRIZOTINIB; 1 nM) | surviving fraction (CRIZOTINIB; 5 nM) | surviving fraction (CRIZOTINIB; 10 nM) | surviving fraction (CRIZOTINIB; 50 nM) | surviving fraction (CRIZOTINIB; 100 nM) | surviving fraction (CRIZOTINIB; 500 nM) | surviving fraction (CRIZOTINIB; 1000 nM)
SCC36 HEADNECK | 1.03 ± 0.063 | 0.903 ± 0.069 | 1.03 ± 0.068 | 1.027 ± 0.0046 | 0.843 ± 0.039 | 0.77 ± 0.033 | 0.838 ± 0.033 | 0.77 ± 0.048 | 1.05 ± 0.11 | 1.06 ± 0.026 | 1.2 ± 0.088 | 1.24 ± 0.1 | 1.13 ± 0.17 | 1.07 ± 0.22 | 0.552 ± 0.072 | 0.301 ± 0.025
SUM159 BREAST | 1.1 ± 0.02 | 1.12 ± 0.028 | 1.11 ± 0.016 | 1.08 ± 0.026 | 1.06 ± 0.021 | 1.09 ± 0.015 | 1.07 ± 0.028 | 1.04 ± 0.021 | 1.11 ± 0.03 | 1.12 ± 0.056 | 1.12 ± 0.039 | 1.11 ± 0.022 | 1.09 ± 0.011 | 1.103 ± 0.004 | 1.11 ± 0.013 | 
HCC202 BREAST | 1.17 ± 0.19 | 1.354 ± 0.0028 | 1.39 ± 0.86 | 1.05 ± 0.41 | 0.774 ± 0.33 | 0.88 ± 0.36 | 1.19 ± 0.05 | 1.123 ± 0.005 | 1.38 ± 0.033 |  | 1.24 ± 0.47 | 1.05 ± 0.069 | 1.13 ± 0.018 | 1.25 ± 0.37 | 1.12 ± 0.12 | 1.246 ± 0.0085
OSHN BONE | 1.01 ± 0.049 | 0.989 ± 0.042 | 1.03 ± 0.044 | 1.02 ± 0.026 | 1.03 ± 0.021 | 0.979 ± 0.01 | 1 ± 0.0049 | 0.998 ± 0.014 | 1.11 ± 0.026 | 1.12 ± 0.035 | 1.12 ± 0.032 | 1.14 ± 0.027 | 1.12 ± 0.081 | 1.14 ± 0.044 | 1.08 ± 0.048 | 0.677 ± 0.067
CADOES1 SOFT TISSUE | 1.04 ± 0.11 | 0.908 ± 0.11 | 1 ± 0.18 | 0.926 ± 0.1 | 0.923 ± 0.019 | 0.973 ± 0.14 | 1.04 ± 0.055 | 0.962 ± 0.18 |  | 0.892 ± 0.084 | 0.953 ± 0.13 | 0.91 ± 0.11 | 0.902 ± 0.073 | 0.949 ± 0.077 | 0.713 ± 0.18 | 0.314 ± 0.06
SCC47 HEADNECK | 1.04 ± 0.046 | 1.12 ± 0.12 | 1.16 ± 0.062 | 1.13 ± 0.14 | 1.06 ± 0.07 | 1.08 ± 0.046 | 1 ± 0.031 | 1.05 ± 0.13 | 1.11 ± 0.056 | 1.08 ± 0.068 | 1.13 ± 0.048 | 1.16 ± 0.034 | 1.18 ± 0.018 | 1.15 ± 0.11 |  | 
BT20 BREAST | 1.12 ± 0.043 | 1.14 ± 0.11 | 1.19 ± 0.052 | 1.15 ± 0.024 | 0.836 ± 0.013 | 0.893 ± 0.15 | 0.912 ± 0.029 | 0.972 ± 0.055 | 1.24 ± 0.013 | 1.23 ± 0.091 | 1.13 ± 0.059 | 1.25 ± 0.05 | 1.05 ± 0.067 | 1.08 ± 0.031 | 1.13 ± 0.088 | 0.592 ± 0.095
SKBR3 BREAST | 1.12 ± 0.05 | 0.9717 ± 0.0031 | 1 ± 0.068 | 1.07 ± 0.15 | 0.782 ± 0.085 | 0.84 ± 0.11 | 0.818 ± 0.086 | 0.849 ± 0.12 | 1.12 ± 0.084 | 1.1 ± 0.046 | 1.09 ± 0.03 | 1.14 ± 0.25 |  | 1.03 ± 0.046 | 1 ± 0.12 | 
SJSA1 BONE | 1.72 ± 0.087 | 1.64 ± 0.046 | 1.64 ± 0.092 | 1.56 ± 0.13 | 0.992 ± 0.068 | 1.13 ± 0.029 | 1.7 ± 0.041 | 0.205 ± 0.018 | 1.72 ± 0.049 | 1.69 ± 0.11 | 1.65 ± 0.11 | 1.719 ± 0.008 | 0.796 ± 0.079 | 1.57 ± 0.021 | 1.62 ± 0.037 | 1.06 ± 0.11
LNCAP PROSTATE | 1.12 ± 0.11 | 1.05 ± 0.11 | 1.06 ± 0.052 | 0.998 ± 0.087 | 1.22 ± 0.069 | 1.16 ± 0.1 | 1.23 ± 0.025 | 1.18 ± 0.039 | 1.01 ± 0.15 |  |  | 0.924 ± 0.094 | 0.872 ± 0.061 | 0.904 ± 0.12 | 0.653 ± 0.063 | 0.425 ± 0.065
DU4475 BREAST | 1.02 ± 0.16 | 1.2 ± 0.081 | 1.05 ± 0.038 | 0.986 ± 0.027 | 0.989 ± 0.068 | 1.08 ± 0.068 | 0.901 ± 0.24 | 0.844 ± 0.038 | 0.991 ± 0.16 | 1 ± 0.12 |  | 0.947 ± 0.17 |  |  | 0.611 ± 0.05 | 0.389 ± 0.057
SAOS2 BONE | 1.11 ± 0.024 | 1.06 ± 0.082 | 1.14 ± 0.054 | 1.12 ± 0.023 | 0.9 ± 0.069 | 0.836 ± 0.066 | 0.831 ± 0.079 | 0.839 ± 0.14 | 1.14 ± 0.063 | 1.12 ± 0.023 | 1.2 ± 0.044 | 1.23 ± 0.068 | 1.34 ± 0.14 | 1.19 ± 0.1 | 0.541 ± 0.046 | 0.1927 ± 0.00058
H23 LUNG | 1.03 ± 0.015 | 1.09 ± 0.046 | 1.07 ± 0.045 | 1.03 ± 0.016 | 1.1 ± 0.076 | 1.11 ± 0.092 | 1.14 ± 0.037 | 1.116 ± 0.011 | 1.04 ± 0.058 | 1.02 ± 0.025 | 1.07 ± 0.04 | 1.08 ± 0.02 | 1.06 ± 0.062 | 1.11 ± 0.059 | 1.11 ± 0.072 | 
SUM149 BREAST | 0.923 ± 0.17 | 0.901 ± 0.054 | 0.892 ± 0.11 | 0.896 ± 0.088 | 0.932 ± 0.1 | 0.851 ± 0.025 | 0.893 ± 0.062 | 0.882 ± 0.031 | 1.08 ± 0.024 | 1.05 ± 0.075 |  | 0.96 ± 0.033 | 1.01 ± 0.13 |  | 0.817 ± 0.07 | 0.51 ± 0.072
SUM44 BREAST | 1.03 ± 0.23 | 1.04 ± 0.21 | 1.13 ± 0.2 | 1.03 ± 0.19 | 0.895 ± 0.057 | 0.962 ± 0.054 | 1.02 ± 0.1 | 1.03 ± 0.092 | 1.28 ± 0.41 | 1.26 ± 0.39 |  | 1.25 ± 0.42 | 1.33 ± 0.42 | 1.36 ± 0.47 | 1.25 ± 0.46 | 1.17 ± 0.43
CAL72 BONE | 1.1 ± 0.021 | 1.09 ± 0.029 | 1.05 ± 0.029 | 1.08 ± 0.014 | 1.05 ± 0.04 | 1.08 ± 0.072 | 1.06 ± 0.044 | 1.1 ± 0.015 | 1.09 ± 0.13 | 1.09 ± 0.13 | 1.09 ± 0.12 | 1.11 ± 0.17 | 1.08 ± 0.15 | 1.1 ± 0.11 | 0.859 ± 0.15 | 0.814 ± 0.17
YAMATO SYNOVIAL | 1.14 ± 0.068 | 1.23 ± 0.018 | 1.28 ± 0.13 | 1.38 ± 0.11 | 0.962 ± 0.096 | 0.968 ± 0.032 | 0.945 ± 0.024 | 0.96 ± 0.059 | 1.13 ± 0.056 | 1.1 ± 0.15 | 1.2 ± 0.14 | 1.1 ± 0.1 | 0.563 ± 0.036 | 0.324 ± 0.031 | 0.221 ± 0.021 | 0.269 ± 0.021
COLO320DM LARGE INTESTINE | 1.09 ± 0.06 | 1.05 ± 0.14 | 1 ± 0.046 | 1.08 ± 0.12 | 1.01 ± 0.084 | 1.07 ± 0.047 | 0.994 ± 0.056 | 1.05 ± 0.059 | 1.13 ± 0.11 | 1.12 ± 0.055 | 1.11 ± 0.056 | 1.04 ± 0.092 | 1.21 ± 0.051 | 1.12 ± 0.092 | 0.622 ± 0.015 | 0.398 ± 0.043
VP229 BREAST | 1.07 ± 0.054 | 1.23 ± 0.1 | 0.995 ± 0.023 | 1.04 ± 0.13 | 0.952 ± 0.084 | 0.812 ± 0.059 | 0.956 ± 0.13 | 0.856 ± 0.19 |  | 1.23 ± 0.082 | 1.06 ± 0.018 | 1.23 ± 0.059 | 1.14 ± 0.048 | 1.15 ± 0.14 | 1.03 ± 0.15 | 0.686 ± 0.14
U2OS BONE | 1.04 ± 0.058 | 1.008 ± 0.0065 | 1.11 ± 0.037 | 1.044 ± 0.0091 | 1.03 ± 0.051 | 1.02 ± 0.045 | 0.939 ± 0.027 | 0.929 ± 0.029 | 1.02 ± 0.026 | 1.05 ± 0.033 | 1.03 ± 0.042 | 1.05 ± 0.029 |  | 1.05 ± 0.013 | 0.539 ± 0.023 | 0.459 ± 0.033
SCC90 HEADNECK | 1.05 ± 0.063 | 0.997 ± 0.066 | 0.925 ± 0.099 | 1.01 ± 0.1 | 0.87 ± 0.037 | 0.875 ± 0.028 | 0.708 ± 0.033 | 0.676 ± 0.072 | 1.06 ± 0.036 | 0.972 ± 0.058 | 1.04 ± 0.087 | 1.1 ± 0.067 | 1.08 ± 0.0074 | 1.12 ± 0.066 | 0.9977 ± 0.0097 | 0.762 ± 0.085
VCAP PROSTATE | 1.08 ± 0.18 | 1.01 ± 0.11 | 1.08 ± 0.06 | 1.03 ± 0.096 | 0.883 ± 0.1 | 1.1 ± 0.052 | 0.941 ± 0.085 | 0.931 ± 0.13 | 1.09 ± 0.13 | 0.987 ± 0.1 | 1.13 ± 0.2 | 1.09 ± 0.02 | 1.02 ± 0.15 |  | 0.504 ± 0.013 | 0.36 ± 0.04
